# From ChEMBL document CHEMBL5724914, “Linking interpersonal differences in gut microbiota composition and drug biotransformation activity” (2024)
# Settings: human gut metagenome, 24 h, 2 µM
# Further: call rule not given here.
row,Bacterial Biotransformation,Compound
1,Compound metabolized,Clc1cccc(Cl)c1N=C1NCCN1 [CLONIDINE]
2,Compound metabolized,COC(=O)[C@H](c1ccccc1Cl)N1CCc2sccc2C1.O=S(=O)(O)O [CLOPIDOGREL BISULFATE]

row,Compound,Bacterial Biotransformation
1,C[N+]12CCC(CC1)C(OC(=O)C(O)(c1ccccc1)c1ccccc1)C2.[Br-] (stereo not given) [CLIDINIUM BROMIDE],Compound metabolized

# Settings: human gut metagenome, 24 h, 2 µM
# Remark: another data set of the same source
row,Bacterial Biotransformation,Compound
1,Compound metabolized,Clc1cccc(Cl)c1N=C1NCCN1 [CLONIDINE]
2,Compound metabolized,COC(=O)[C@H](c1ccccc1Cl)N1CCc2sccc2C1.O=S(=O)(O)O [CLOPIDOGREL BISULFATE]

row,Compound,Bacterial Biotransformation
1,C[N+]12CCC(CC1)C(OC(=O)C(O)(c1ccccc1)c1ccccc1)C2.[Br-] (stereo not given) [CLIDINIUM BROMIDE],Compound metabolized

# Assay: (§1) The drug is tested on Z-020 corresponding to rabbit gut metagenome with ENA study accession number: PRJEB37062 and ENA sample accession number: ERS12561819 for biotransformation under anaerobic condition. The drug concentrations were measured over 9 timepoints collected between 0 and 24 hours of incubation by liquid-chromatography-coupled mass spectrometry (LC–MS)
# Settings: 2 µM
row,Bacterial Biotransformation,Compound
1,Compound metabolized,Clc1cccc(Cl)c1N=C1NCCN1 [CLONIDINE]
2,Compound metabolized,COC(=O)[C@H](c1ccccc1Cl)N1CCc2sccc2C1.O=S(=O)(O)O [CLOPIDOGREL BISULFATE]

row,Compound,Bacterial Biotransformation
1,C[N+]12CCC(CC1)C(OC(=O)C(O)(c1ccccc1)c1ccccc1)C2.[Br-] (stereo not given) [CLIDINIUM BROMIDE],Compound NOT metabolized

# Settings: human gut metagenome, 24 h, 2 µM
# Remark: another data set of the same source
row,Bacterial Biotransformation,Compound
1,Compound NOT metabolized,Clc1cccc(Cl)c1N=C1NCCN1 [CLONIDINE]
2,Compound metabolized,COC(=O)[C@H](c1ccccc1Cl)N1CCc2sccc2C1.O=S(=O)(O)O [CLOPIDOGREL BISULFATE]

row,Compound,Bacterial Biotransformation
1,C[N+]12CCC(CC1)C(OC(=O)C(O)(c1ccccc1)c1ccccc1)C2.[Br-] (stereo not given) [CLIDINIUM BROMIDE],Compound NOT metabolized

# Settings: human gut metagenome, 24 h, 2 µM
# Remark: another data set of the same source
row,Bacterial Biotransformation,Compound
1,Compound metabolized,Clc1cccc(Cl)c1N=C1NCCN1 [CLONIDINE]
2,Compound metabolized,COC(=O)[C@H](c1ccccc1Cl)N1CCc2sccc2C1.O=S(=O)(O)O [CLOPIDOGREL BISULFATE]

row,Compound,Bacterial Biotransformation
1,C[N+]12CCC(CC1)C(OC(=O)C(O)(c1ccccc1)c1ccccc1)C2.[Br-] (stereo not given) [CLIDINIUM BROMIDE],Compound metabolized

# Settings: human gut metagenome, 24 h, 2 µM
# Remark: another data set of the same source
row,Bacterial Biotransformation,Compound
1,Compound metabolized,Clc1cccc(Cl)c1N=C1NCCN1 [CLONIDINE]
2,Compound metabolized,COC(=O)[C@H](c1ccccc1Cl)N1CCc2sccc2C1.O=S(=O)(O)O [CLOPIDOGREL BISULFATE]

row,Compound,Bacterial Biotransformation
1,C[N+]12CCC(CC1)C(OC(=O)C(O)(c1ccccc1)c1ccccc1)C2.[Br-] (stereo not given) [CLIDINIUM BROMIDE],Compound metabolized

# Assay: as §1, with “WLS-007” for “Z-020”, “human” for “rabbit”, “ERS12561742” for “ERS12561819”
# Settings: 2 µM
row,Bacterial Biotransformation,Compound
1,Compound NOT metabolized,Clc1cccc(Cl)c1N=C1NCCN1 [CLONIDINE]
2,Compound metabolized,COC(=O)[C@H](c1ccccc1Cl)N1CCc2sccc2C1.O=S(=O)(O)O [CLOPIDOGREL BISULFATE]

row,Compound,Bacterial Biotransformation
1,C[N+]12CCC(CC1)C(OC(=O)C(O)(c1ccccc1)c1ccccc1)C2.[Br-] (stereo not given) [CLIDINIUM BROMIDE],Compound NOT metabolized

# Settings: human gut metagenome, 24 h, 2 µM
# Remark: another data set of the same source
row,Bacterial Biotransformation,Compound
1,Compound metabolized,Clc1cccc(Cl)c1N=C1NCCN1 [CLONIDINE]
2,Compound metabolized,COC(=O)[C@H](c1ccccc1Cl)N1CCc2sccc2C1.O=S(=O)(O)O [CLOPIDOGREL BISULFATE]

row,Compound,Bacterial Biotransformation
1,C[N+]12CCC(CC1)C(OC(=O)C(O)(c1ccccc1)c1ccccc1)C2.[Br-] (stereo not given) [CLIDINIUM BROMIDE],Compound metabolized

# Settings: human gut metagenome, 24 h, 2 µM
# Remark: another data set of the same source
row,Bacterial Biotransformation,Compound
1,Compound NOT metabolized,Clc1cccc(Cl)c1N=C1NCCN1 [CLONIDINE]
2,Compound metabolized,COC(=O)[C@H](c1ccccc1Cl)N1CCc2sccc2C1.O=S(=O)(O)O [CLOPIDOGREL BISULFATE]

row,Compound,Bacterial Biotransformation
1,C[N+]12CCC(CC1)C(OC(=O)C(O)(c1ccccc1)c1ccccc1)C2.[Br-] (stereo not given) [CLIDINIUM BROMIDE],Compound metabolized

# Assay: as §1, with “Z-003” for “Z-020”, “pig” for “rabbit”, “ERS12561803” for “ERS12561819”
# Settings: 2 µM
row,Bacterial Biotransformation,Compound
1,Compound metabolized,Clc1cccc(Cl)c1N=C1NCCN1 [CLONIDINE]
2,Compound metabolized,COC(=O)[C@H](c1ccccc1Cl)N1CCc2sccc2C1.O=S(=O)(O)O [CLOPIDOGREL BISULFATE]

row,Compound,Bacterial Biotransformation
1,C[N+]12CCC(CC1)C(OC(=O)C(O)(c1ccccc1)c1ccccc1)C2.[Br-] (stereo not given) [CLIDINIUM BROMIDE],Compound metabolized

# Assay: as §1, with “Z-030” for “Z-020”, “mouse” for “rabbit”, “ERS12561829” for “ERS12561819”
# Settings: 2 µM
row,Bacterial Biotransformation,Compound
1,Compound NOT metabolized,Clc1cccc(Cl)c1N=C1NCCN1 [CLONIDINE]
2,Compound NOT metabolized,COC(=O)[C@H](c1ccccc1Cl)N1CCc2sccc2C1.O=S(=O)(O)O [CLOPIDOGREL BISULFATE]

row,Compound,Bacterial Biotransformation
1,C[N+]12CCC(CC1)C(OC(=O)C(O)(c1ccccc1)c1ccccc1)C2.[Br-] (stereo not given) [CLIDINIUM BROMIDE],Compound NOT metabolized

# Settings: human gut metagenome, 24 h, 2 µM
# Remark: another data set of the same source
row,Bacterial Biotransformation,Compound
1,Compound NOT metabolized,Clc1cccc(Cl)c1N=C1NCCN1 [CLONIDINE]
2,Compound metabolized,COC(=O)[C@H](c1ccccc1Cl)N1CCc2sccc2C1.O=S(=O)(O)O [CLOPIDOGREL BISULFATE]

row,Compound,Bacterial Biotransformation
1,C[N+]12CCC(CC1)C(OC(=O)C(O)(c1ccccc1)c1ccccc1)C2.[Br-] (stereo not given) [CLIDINIUM BROMIDE],Compound NOT metabolized

# Settings: human gut metagenome, 24 h, 2 µM
# Remark: another data set of the same source
row,Bacterial Biotransformation,Compound
1,Compound metabolized,Clc1cccc(Cl)c1N=C1NCCN1 [CLONIDINE]
2,Compound metabolized,COC(=O)[C@H](c1ccccc1Cl)N1CCc2sccc2C1.O=S(=O)(O)O [CLOPIDOGREL BISULFATE]

row,Compound,Bacterial Biotransformation
1,C[N+]12CCC(CC1)C(OC(=O)C(O)(c1ccccc1)c1ccccc1)C2.[Br-] (stereo not given) [CLIDINIUM BROMIDE],Compound metabolized

# Assay: as §1, with “WLS-310” for “Z-020”, “human” for “rabbit”, “ERS12561785” for “ERS12561819”
# Settings: 2 µM
row,Bacterial Biotransformation,Compound
1,Compound metabolized,Clc1cccc(Cl)c1N=C1NCCN1 [CLONIDINE]
2,Compound metabolized,COC(=O)[C@H](c1ccccc1Cl)N1CCc2sccc2C1.O=S(=O)(O)O [CLOPIDOGREL BISULFATE]

row,Compound,Bacterial Biotransformation
1,C[N+]12CCC(CC1)C(OC(=O)C(O)(c1ccccc1)c1ccccc1)C2.[Br-] (stereo not given) [CLIDINIUM BROMIDE],Compound NOT metabolized

# Assay: as §1, with “Z-008” for “Z-020”, “to” for “to rabbit gut”, “ERS12561808” for “ERS12561819”
# Settings: 2 µM
row,Bacterial Biotransformation,Compound
1,Compound NOT metabolized,Clc1cccc(Cl)c1N=C1NCCN1 [CLONIDINE]
2,Compound metabolized,COC(=O)[C@H](c1ccccc1Cl)N1CCc2sccc2C1.O=S(=O)(O)O [CLOPIDOGREL BISULFATE]

row,Compound,Bacterial Biotransformation
1,C[N+]12CCC(CC1)C(OC(=O)C(O)(c1ccccc1)c1ccccc1)C2.[Br-] (stereo not given) [CLIDINIUM BROMIDE],Compound NOT metabolized

# Assay: as §1, with “WLS-077” for “Z-020”, “human” for “rabbit”, “ERS12561750” for “ERS12561819”
# Settings: 2 µM
row,Bacterial Biotransformation,Compound
1,Compound NOT metabolized,Clc1cccc(Cl)c1N=C1NCCN1 [CLONIDINE]
2,Compound metabolized,COC(=O)[C@H](c1ccccc1Cl)N1CCc2sccc2C1.O=S(=O)(O)O [CLOPIDOGREL BISULFATE]

row,Compound,Bacterial Biotransformation
1,C[N+]12CCC(CC1)C(OC(=O)C(O)(c1ccccc1)c1ccccc1)C2.[Br-] (stereo not given) [CLIDINIUM BROMIDE],Compound NOT metabolized

# Settings: human gut metagenome, 24 h, 2 µM
# Remark: another data set of the same source
row,Bacterial Biotransformation,Compound
1,Compound metabolized,Clc1cccc(Cl)c1N=C1NCCN1 [CLONIDINE]
2,Compound metabolized,COC(=O)[C@H](c1ccccc1Cl)N1CCc2sccc2C1.O=S(=O)(O)O [CLOPIDOGREL BISULFATE]

row,Compound,Bacterial Biotransformation
1,C[N+]12CCC(CC1)C(OC(=O)C(O)(c1ccccc1)c1ccccc1)C2.[Br-] (stereo not given) [CLIDINIUM BROMIDE],Compound NOT metabolized

# Assay: as §1, with “Z-026” for “Z-020”, “to” for “to rabbit gut”, “ERS12561825” for “ERS12561819”
# Settings: 2 µM
row,Bacterial Biotransformation,Compound
1,Compound NOT metabolized,Clc1cccc(Cl)c1N=C1NCCN1 [CLONIDINE]
2,Compound metabolized,COC(=O)[C@H](c1ccccc1Cl)N1CCc2sccc2C1.O=S(=O)(O)O [CLOPIDOGREL BISULFATE]

row,Compound,Bacterial Biotransformation
1,C[N+]12CCC(CC1)C(OC(=O)C(O)(c1ccccc1)c1ccccc1)C2.[Br-] (stereo not given) [CLIDINIUM BROMIDE],Compound NOT metabolized

# Assay: as §1, with “WLS-220” for “Z-020”, “human” for “rabbit”, “ERS12561769” for “ERS12561819”
# Settings: 2 µM
row,Bacterial Biotransformation,Compound
1,Compound metabolized,Clc1cccc(Cl)c1N=C1NCCN1 [CLONIDINE]
2,Compound metabolized,COC(=O)[C@H](c1ccccc1Cl)N1CCc2sccc2C1.O=S(=O)(O)O [CLOPIDOGREL BISULFATE]

row,Compound,Bacterial Biotransformation
1,C[N+]12CCC(CC1)C(OC(=O)C(O)(c1ccccc1)c1ccccc1)C2.[Br-] (stereo not given) [CLIDINIUM BROMIDE],Compound NOT metabolized

# Settings: human gut metagenome, 24 h, 2 µM
# Remark: another data set of the same source
row,Bacterial Biotransformation,Compound
1,Compound metabolized,Clc1cccc(Cl)c1N=C1NCCN1 [CLONIDINE]
2,Compound metabolized,COC(=O)[C@H](c1ccccc1Cl)N1CCc2sccc2C1.O=S(=O)(O)O [CLOPIDOGREL BISULFATE]

row,Compound,Bacterial Biotransformation
1,C[N+]12CCC(CC1)C(OC(=O)C(O)(c1ccccc1)c1ccccc1)C2.[Br-] (stereo not given) [CLIDINIUM BROMIDE],Compound metabolized
